Laboratory results: US7135556B2, “NPC1L1 (NPC3) and methods of use thereof” (Schering Corporation, priority 2002, dated 2006)

What was measured:
cholesterol absorption = assay: Cholesterol absorption in mice, dual fecal isotope ratio method (cholesterol/sitostanol) (Example 24); assay type: in vivo, mouse; conditions: chow diet
Protocol: Cholesterol absorption in the mice was determined by the dual fecal isotope ratio method as described by Altmann et al. (Biochim. Biophys. Acta. 1580(1):77–93 (2002)). […] Mice were gavaged with ^14C-cholesterol (1 μCi, 0.1 mg unlabeled cholesterol) and ^3H-sitostanol (2 μCi) in 0.1 ml corn oil. Feces were collected for 2 days and fecal ^14C-cholesterol and ^3H-sitostanol levels were determined by combustion in a Packard Oxidizer. The fraction of cholesterol absorbed, as evaluated by the fecal dual isotope technique, was similar in wild type (+/+) and heterozygous mice (+/−) fed a chow diet (heterozygous mice absorbed 46±5% and age matched wild type mice absorbed 51±3% of the dose of ^14C-cholesterol).

SR-B1 = target: T1, SR-B1 (Mus musculus, UniProt Q61009); assay: Cholesterol uptake assay (Example 4), [3H]-cholesterol, CHO cells expressing SR-B1; assay type: cell-based; conditions: 10 μM ezetimibe
T1 construct: expressed in transfected cells; host or cells: CHO cells
T1 sequence (Q61009 1-509): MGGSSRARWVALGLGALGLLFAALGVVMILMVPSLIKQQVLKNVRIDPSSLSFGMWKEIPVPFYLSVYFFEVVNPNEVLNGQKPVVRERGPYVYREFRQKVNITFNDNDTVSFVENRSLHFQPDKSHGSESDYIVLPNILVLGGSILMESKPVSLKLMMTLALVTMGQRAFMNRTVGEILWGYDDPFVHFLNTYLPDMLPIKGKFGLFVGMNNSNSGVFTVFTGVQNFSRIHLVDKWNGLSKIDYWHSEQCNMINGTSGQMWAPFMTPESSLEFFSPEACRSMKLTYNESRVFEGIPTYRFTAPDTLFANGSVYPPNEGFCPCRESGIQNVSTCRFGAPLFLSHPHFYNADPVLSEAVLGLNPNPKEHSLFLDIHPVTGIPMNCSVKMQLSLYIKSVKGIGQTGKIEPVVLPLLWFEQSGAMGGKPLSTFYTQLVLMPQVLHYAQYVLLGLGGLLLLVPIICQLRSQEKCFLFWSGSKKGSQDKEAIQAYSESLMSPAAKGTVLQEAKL
Excerpt: The cells were harvested and the lipids were organically extracted. The extracted lipids were spotted on thin-layer chromatography (TLC) plates and resolved within an organic vapor phase. The free cholesterol bands for each assay were isolated and counted in a scintillation counter.

untransfected CHO cells = assay: FACS analysis of BODIPY-labeled ezetimibe binding, untransfected CHO cells; set-up: species or system chinese hamster; conditions: 100 nM BODIPY-labeled ezetimibe
Protocol: (§1) “BODIPY” is a fluorescent group which was used to detect the BODIPY-ezetimibe. Chinese hamster ovary (CHO) cells were transiently transfected with rat NPC1L1 DNA (rNPC1L1/CHO), mouse NPC1L1 DNA (mNPC1L1/CHO), mouse SR-B1 DNA (mSRBI/CHO) or EGFP DNA (EGFP/CHO). EGFP is enhanced green fluorescent protein which was used as a positive control. […] Control experiments were also performed wherein the cells were not labeled with the BODIPY-ezetimibe and wherein untransfected CHO cells were labeled with the BODIPY-ezetimibe.

mouse SR-B1 = target: T2, mouse SR-B1 (Mus musculus, UniProt Q61009); assay: FACS analysis of BODIPY-labeled ezetimibe binding, mSRBI/CHO; conditions: 100 nM BODIPY-labeled ezetimibe
T2 construct: expressed in transfected cells
T2 sequence (Q61009 1-509): T1 sequence (Q61009 1-509)
Protocol: as §1

rat NPC1L1 = target: T3, rat NPC1L1 (Rattus norvegicus, UniProt Q6T3U3); assay: FACS analysis of BODIPY-labeled ezetimibe binding, rNPC1L1/CHO; conditions: 100 nM BODIPY-labeled ezetimibe
T3 construct: using clone specific PCR primers to generate the ORF flanked by appropriate restriction sites; expressed in transfected cells
Protocol: as §1

mouse NPC1L1 = target: T4, mouse NPC1L1 (Mus musculus, UniProt Q6T3U4); assay: FACS analysis of BODIPY-labeled ezetimibe binding, mNPC1L1/CHO; conditions: 100 nM BODIPY-labeled ezetimibe
T4 construct: using clone specific PCR primers to generate the ORF flanked by appropriate restriction sites; expressed in transfected cells
Protocol: as §1

Compound: O=C1[C@H](CC[C@H](O)c2ccc(F)cc2)[C@@H](c2ccc(O)cc2)N1c1ccc(F)cc1 [ezetimibe]
- fraction of cholesterol absorbed (of the dose of 14C-cholesterol) (cholesterol absorption; NPC1L1 knockout mice (−/−), ezetimibe 10 mg/kg/day): 16.2±0.6%
- fraction of cholesterol absorbed (of the dose of 14C-cholesterol) (cholesterol absorption; wild type mice, ezetimibe 10 mg/kg daily): 16.1±0.3%
- [3H]-cholesterol uptake (SR-B1): inhibited

Compound: N-(4,4-difluoro-5.7-dimethyl-4-bora-3a.4a-diaza-s-indacene-3-vl)methyl iodoacetamide/ezetimibe [BODIPY-ezetimibe]
- staining of cells (FACS) (untransfected CHO cells): No staining
- staining of cells (FACS) (mouse SR-B1): detected
- staining of cells (FACS) (rat NPC1L1): No staining
- staining of cells (FACS) (mouse NPC1L1): No staining
